# According to the supplement of paper PMC11208160:
# Assay: recombinant barcode read abundance after kanamycin selection (control-corrected) (log10(CPM+1)); higher = more efficient recombination; sequences stand for … in AGTGCAGAGAAAATCGGCCAGTTTTCTCTGCCTGCAGTCCGCATGCCGT…AGATTTATGCAGCGGACTGCCTTTCTCCCAAAGTGATAAACCGGACAGTATCATGGACCGGTTTTCCCGGTAATCCGTATTTGCAAGGTTGGTTTCACT; site = the 11-nt target
# Summary of the method: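 Targets and IS621 bridge RNA target-binding loops were paired in oligos, each with a promoter, a barcode and the J23119-driven first 104 bridge RNA bases. A vector carrying the remaining 73 bp and a T7-inducible recombinase received these by Gibson cloning, and the pool was co-electroporated into E. coli with a donor plasmid. Duplicate plates contained chloramphenicol/ampicillin LB agar (control) or chloramphenicol/ampicillin/kanamycin with 0.1 mM IPTG. Recombination efficiency comes from averaged, control-corrected counts per million of recombinant-junction barcodes, reported as log10(CPM+1).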
# 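Note: IS621 recombinase and bridge RNA in Escherichia coli cells.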
row,Sequence,recombinant barcode read abundance (log10)
1,CGGTCATCTTGGGTTCTAACCTGTTGCCT (site CGCTCATCTAG),0.171
2,CGGTCATCTTGGGTTCTAACCTGTTGCCT (site CGGTCATCTAG),0.537
3,CGGTCATCTTGGGTTCTAACCTGTTGCCT (site CGTTCATCTAG),0.417
4,CGTAAACCTTGGGTTCTAACCTGTTGCGT (site CGTAAACCTAC),0.451
5,CGTAAACCTTGGGTTCTAACCTGTTGCGT (site CGTCAACCTAC),0.0732
6,CGTAAACCTTGGGTTCTAACCTGTTGCGT (site CGTGAACCTAC),0.159
7,CGTAAACCTTGGGTTCTAACCTGTTGCGT (site CGTTAACCTAC),0.393
8,CGTAAGACTTGGGTTCTAACCTGTTGCCT (site CGTAAGACTAG),0.489
9,CGTAAGACTTGGGTTCTAACCTGTTGCCT (site CGTCAGACTAG),0.265
10,CGTAAGACTTGGGTTCTAACCTGTTGCCT (site CGTGAGACTAG),0.0483
11,CGTAAGACTTGGGTTCTAACCTGTTGCCT (site CGTTAGACTAG),0.0104
12,CGTACCGCTTGGGTTCTAACCTGTTGCCT (site CCTACCGCTAA),0.153
13,CGTACCGCTTGGGTTCTAACCTGTTGCCT (site CGTACCGCTAG),0.496
14,CGTACCTCTTGGGTTCTAACCTGTTGCTC (site CGTACCTCTAA),0.056
15,CGTACCTCTTGGGTTCTAACCTGTTGCTC (site CGTACCTCTCA),0.0772
16,CGTACCTCTTGGGTTCTAACCTGTTGCTC (site CGTACCTCTGA),0.171
17,CGTACCTCTTGGGTTCTAACCTGTTGCTC (site CGTACCTCTTA),0.0752
18,CGTACCTCTTGGGTTCTAACCTGTTGCTG (site CGTACCTCTAA),0.21
19,CGTACCTCTTGGGTTCTAACCTGTTGCTG (site CGTACCTCTCA),0.164
20,CGTACCTCTTGGGTTCTAACCTGTTGCTG (site CGTACCTCTGA),0.0169
21,CGTACCTCTTGGGTTCTAACCTGTTGCTG (site CGTACCTCTTA),0.0203
22,CGTAGCCCTTGGGTTCTAACCTGTTGCGG (site ACATATACTAA),0.157

row,Sequence,recombinant barcode read abundance (log10)
1,CGTAGCCCTTGGGTTCTAACCTGTTGCGG (site CGTAGCCCTCC),0.691
2,CGTAGGGCTTGGGTTCTAACCTGTTGCCG (site AGTAGGGCTCT),0.103
3,CGTAGGGCTTGGGTTCTAACCTGTTGCCG (site CGTAGGGCTCG),0.102
4,CGTATAGCTTGGGTTCTAACCTGTTGCCT (site CGTATAGCTAG),0.285
5,CGTATAGCTTGGGTTCTAACCTGTTGCCT (site CGTGAAGCTAG),0.0599
6,CGTATATCTTGGGTTCTAACCTGTTGCCT (site CGTATATCTAG),0
7,CGTATATCTTGGGTTCTAACCTGTTGCCT (site CGTGTAACTAG),0.0247
8,CGTATCCCTTGGGTTCTAACCTGTTGCTG (site CGTATCCCTCA),0.692
9,CGTATCCCTTGGGTTCTAACCTGTTGCTG (site CGTCTCCCTAA),0.155
10,CGTATCTCTTGGGTTCTAACCTGTTGCCT (site CCAATCTCTAG),0.063
11,CGTATCTCTTGGGTTCTAACCTGTTGCCT (site CGTATCTCTAG),0.406
12,CGTATGACTTGGGTTCTAACCTGTTGCCT (site AGTATGACTAG),0.28
13,CGTATGACTTGGGTTCTAACCTGTTGCCT (site CGTATGACTAG),0.0395
14,CGTATGACTTGGGTTCTAACCTGTTGCCT (site GGTATGACTAG),0.103
15,CGTATGACTTGGGTTCTAACCTGTTGCCT (site TGTATGACTAG),0.05
16,CGTCAGCCTTGGGTTCTAACCTGTTGCCT (site CGTCAACCTAG),0.0431
17,CGTCAGCCTTGGGTTCTAACCTGTTGCCT (site CGTCACCCTAG),0.0486
18,CGTCAGCCTTGGGTTCTAACCTGTTGCCT (site CGTCAGCCTAG),0.22
19,CGTCAGCCTTGGGTTCTAACCTGTTGCCT (site CGTCATCCTAG),0.0681
20,CGTCGACCTTGGGTTCTAACCTGTTGCAT (site ACCTCTTCTTA),0.0126
21,CGTCGACCTTGGGTTCTAACCTGTTGCAT (site CGTCGACCTAT),0.128
22,CGTCGGACTTGGGTTCTAACCTGTTGCAG (site CGTCGGACTCT),0.3

row,Sequence,recombinant barcode read abundance (log10)
1,CGTCGGACTTGGGTTCTAACCTGTTGCAG (site TAGTTTGCTTC),0.0182
2,CGTCTAGCTTGGGTTCTAACCTGTTGCAT (site CGTCTAGCTAT),0.255
3,CGTCTAGCTTGGGTTCTAACCTGTTGCAT (site TCGGCCTCTTA),0.0729
4,CGTGACCCTTGGGTTCTAACCTGTTGCTT (site CGGGACCCTAG),0.0226
5,CGTGACCCTTGGGTTCTAACCTGTTGCTT (site CGTGACCCTAA),0.691
6,CGTGAGACTTGGGTTCTAACCTGTTGCCT (site CGTAAGACTAG),0.341
7,CGTGAGACTTGGGTTCTAACCTGTTGCCT (site CGTCAGACTAG),0.203
8,CGTGAGACTTGGGTTCTAACCTGTTGCCT (site CGTGAGACTAG),1.48
9,CGTGAGACTTGGGTTCTAACCTGTTGCCT (site CGTTAGACTAG),0.0487
10,CGTGGAGCTTGGGTTCTAACCTGTTGCCA (site CGTCTAGCTTG),0.136
11,CGTGGAGCTTGGGTTCTAACCTGTTGCCA (site CGTGGAGCTTG),0.836
12,CGTGGTCCTTGGGTTCTAACCTGTTGCAT (site CGTGGTCCTAA),0.414
13,CGTGGTCCTTGGGTTCTAACCTGTTGCAT (site CGTGGTCCTAC),0.809
14,CGTGGTCCTTGGGTTCTAACCTGTTGCAT (site CGTGGTCCTAG),0.398
15,CGTGGTCCTTGGGTTCTAACCTGTTGCAT (site CGTGGTCCTAT),1.25
16,CGTGTAACTTGGGTTCTAACCTGTTGCTT (site CGAGCAACTAA),0.0308
17,CGTGTAACTTGGGTTCTAACCTGTTGCTT (site CGTGTAACTAA),0.212
18,CGTTATTCTTGGGTTCTAACCTGTTGCCT (site CGGAATTCTAG),0.115
19,CGTTATTCTTGGGTTCTAACCTGTTGCCT (site CGTTATTCTAG),0.0118
20,CGTTCACCTTGGGTTCTAACCTGTTGCAT (site ACAAATACTCC),0.0056
21,CGTTCACCTTGGGTTCTAACCTGTTGCAT (site CGTTCACCTAT),0.499
22,CGTTCCTCTTGGGTTCTAACCTGTTGCCT (site CATTCCTCTAG),0.0798

row,Sequence,recombinant barcode read abundance (log10)
1,CGTTCCTCTTGGGTTCTAACCTGTTGCCT (site CCTTCCTCTAG),0.016
2,CGTTCCTCTTGGGTTCTAACCTGTTGCCT (site CGTTCCTCTAG),0.519
3,CGTTCCTCTTGGGTTCTAACCTGTTGCCT (site CTTTCCTCTAG),0.0942
4,CTAAAAGCTTGGGTTCTAACCTGTTGCAA (site CTAAAAGCTTT),0.501
5,CTAAAAGCTTGGGTTCTAACCTGTTGCAA (site GGCTGTCCTAC),0.628
6,CTAAAGACTTGGGTTCTAACCTGTTGCAC (site CCAAAGACTAT),0.0891
7,CTAAAGACTTGGGTTCTAACCTGTTGCAC (site CTAAAGACTGT),1.42
8,CTAAATACTTGGGTTCTAACCTGTTGCCT (site CTAAATACTAG),0.17
9,CTAAATACTTGGGTTCTAACCTGTTGCCT (site CTAAATACTTA),0.0116
10,CTAAATACTTGGGTTCTAACCTGTTGCGT (site CTAAATACTAC),1.54
11,CTAAATACTTGGGTTCTAACCTGTTGCGT (site CTACATTCTAC),0.00955
12,CTAAGAACTTGGGTTCTAACCTGTTGCGT (site CTAAGAACTAA),0.0418
13,CTAAGAACTTGGGTTCTAACCTGTTGCGT (site CTAAGAACTAC),2.1
14,CTAAGAACTTGGGTTCTAACCTGTTGCGT (site CTAAGAACTAG),0.264
15,CTAAGAACTTGGGTTCTAACCTGTTGCGT (site CTAAGAACTAT),0.615
16,CTAAGCGCTTGGGTTCTAACCTGTTGCCA (site CTAAGAGCTTG),0.145
17,CTAAGCGCTTGGGTTCTAACCTGTTGCCA (site CTAAGCGCTTG),0.647
18,CTAAGCGCTTGGGTTCTAACCTGTTGCCA (site CTAAGGGCTTG),0.205
19,CTAAGCGCTTGGGTTCTAACCTGTTGCCA (site CTAAGTGCTTG),0.0786
20,CTAAGCTCTTGGGTTCTAACCTGTTGCTT (site CTAAGCTCTAA),0.0662
